# Tested on: Oocyte
# Assay: Antagonist activity at GluN1a/GluN2B NMDA receptor (unknown origin) expressed in Xenopus oocytes assessed as inhibition of glycine and (S)-glutamate-induced ion channel activation at 1 uM at -70 mV holding potential by two-electrode voltage clamp method relative to control
# Assay type: cell-based
# Conditions: Homo sapiens
row,Structure (SMILES),inhibition [%]
1,O[C@H](CN1[C@@H]2CC[C@H]1C[C@H](Cc1ccc(F)cc1)C2)c1ccccc1,3.1
2,O[C@@H](CN1[C@@H]2CC[C@H]1C[C@H](Cc1ccc(F)cc1)C2)c1ccccc1,5.4
3,O[C@H](CN1[C@@H]2CC[C@H]1C/C(=C\c1ccc(F)cc1)C2)c1ccccc1,1.7
4,O[C@@H](CN1[C@@H]2CC[C@H]1C/C(=C\c1ccc(F)cc1)C2)c1ccccc1,1.3
5,O[C@H](CN1[C@@H]2CC[C@H]1C[C@@H](Cc1ccc(F)cc1)C2)c1ccccc1,2.3
6,O[C@@H](CN1[C@@H]2CC[C@H]1C[C@@H](Cc1ccc(F)cc1)C2)c1ccccc1,8.7
7,O[C@@H](CN1[C@@H]2CC[C@H]1C/C(=C/c1ccc(F)cc1)C2)c1ccccc1,-0.9
8,O[C@H](CN1[C@@H]2CC[C@H]1C/C(=C/c1ccc(F)cc1)C2)c1ccccc1,1.5

# Tested on: not listed separately
# Assay: Displacement of [3H]ifenprodil from recombinant human GluN1A/GluN2B expressed in mouse L-M(TK-) cell membranes after 120 mins by microbeta scintillation counting method
# Design: species or system Membrane
# Conditions: not given
row,Structure (SMILES),Ki [nM]
1,O[C@H](CN1[C@@H]2CC[C@H]1C[C@H](Cc1ccc(F)cc1)C2)c1ccccc1,1.9
2,O[C@@H](CN1[C@@H]2CC[C@H]1C/C(=C/c1ccccc1)C2)c1ccc(F)cc1,29
3,O[C@@H](CN1[C@@H]2CC[C@H]1C[C@H](Cc1ccc(F)cc1)C2)c1ccccc1,17
4,O[C@H](CN1[C@@H]2CC[C@H]1C/C(=C\c1ccc(Cl)cc1)C2)c1ccccc1,4.4
5,O[C@@H](CN1[C@@H]2CC[C@H]1C/C(=C\c1ccccc1)C2)c1ccccc1,1.1
6,OC(CN1CCC(Cc2ccc(F)cc2)CC1)c1ccc(Cl)cc1 (stereo not drawn) [ELIPRODIL],13
7,O[C@H](CN1[C@@H]2CC[C@H]1C/C(=C/c1ccc(Cl)cc1)C2)c1ccccc1,20
8,O[C@H](CN1[C@@H]2CC[C@H]1C/C(=C\c1ccc(F)cc1)C2)c1ccccc1,2.9
9,O[C@H](CN1[C@@H]2CC[C@H]1C/C(=C\c1ccccc1)C2)c1ccccc1,1.8
10,O[C@@H](CN1[C@@H]2CC[C@H]1C/C(=C/c1ccc(F)cc1)C2)c1ccc(F)cc1,7
11,O[C@@H](CN1[C@@H]2CC[C@H]1C/C(=C\c1ccc(F)cc1)C2)c1ccccc1,3
12,O[C@H](CN1[C@@H]2CC[C@H]1C/C(=C/c1ccccc1)C2)c1ccccc1,21
13,O[C@@H](CN1[C@@H]2CC[C@H]1C/C(=C/c1ccccc1)C2)c1ccccc1,34
14,O[C@H](CN1[C@@H]2CC[C@H]1C[C@@H](Cc1ccc(F)cc1)C2)c1ccccc1,17
15,O[C@H](CN1[C@@H]2CC[C@H]1C[C@@H](Cc1ccccc1)C2)c1ccccc1,15
16,O[C@@H](CN1[C@@H]2CC[C@H]1C[C@H](Cc1ccccc1)C2)c1ccccc1,21
17,O[C@@H](CN1[C@@H]2CC[C@H]1C[C@H](Cc1ccccc1)C2)c1ccc(F)cc1,5.2
18,O[C@@H](CN1[C@@H]2CC[C@H]1C[C@H](Cc1ccc(F)cc1)C2)c1ccc(F)cc1,5.9
19,O[C@@H](CN1[C@@H]2CC[C@H]1C[C@@H](Cc1ccccc1)C2)c1ccccc1,2.1
20,O[C@@H](CN1[C@@H]2CC[C@H]1C[C@@H](Cc1ccccc1)C2)c1ccc(F)cc1,1.7
21,O[C@@H](CN1[C@@H]2CC[C@H]1C[C@@H](Cc1ccc(F)cc1)C2)c1ccccc1,0.7
22,O[C@@H](CN1[C@@H]2CC[C@H]1C[C@@H](Cc1ccc(F)cc1)C2)c1ccc(F)cc1,0.8
23,O[C@@H](CN1[C@@H]2CC[C@H]1C/C(=C\c1ccc(F)cc1)C2)c1ccc(F)cc1,1
24,C[C@H]([C@H](O)c1ccc(O)cc1)N1CCC(Cc2ccccc2)CC1,5.8
25,O[C@@H](CN1[C@@H]2CC[C@H]1C/C(=C\c1ccccc1)C2)c1ccc(F)cc1,1.4
26,O[C@@H](CN1[C@@H]2CC[C@H]1C/C(=C/c1ccc(Cl)cc1)C2)c1ccccc1,13
27,O[C@@H](CN1[C@@H]2CC[C@H]1C/C(=C\c1ccc(Cl)cc1)C2)c1ccccc1,4.4
28,O[C@@H](CN1[C@@H]2CC[C@H]1C/C(=C/c1ccc(F)cc1)C2)c1ccccc1,16
29,O[C@H](CN1[C@@H]2CC[C@H]1C[C@H](Cc1ccccc1)C2)c1ccccc1 (mixture of isomers),2.4
30,O[C@H](CN1[C@@H]2CC[C@H]1C/C(=C/c1ccc(F)cc1)C2)c1ccccc1,9.3

# Target: Sigma non-opioid intracellular receptor 1 (Cavia porcellus, UniProt Q60492)
# Sequence (Q60492 whole entry): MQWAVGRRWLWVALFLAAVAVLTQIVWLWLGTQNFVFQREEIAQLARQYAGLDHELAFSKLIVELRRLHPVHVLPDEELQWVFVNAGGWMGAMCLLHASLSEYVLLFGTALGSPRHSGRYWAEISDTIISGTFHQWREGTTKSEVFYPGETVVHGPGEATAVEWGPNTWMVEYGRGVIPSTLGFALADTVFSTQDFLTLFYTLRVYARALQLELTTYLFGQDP
# Assay: Displacement of [3H]-(+)-pentazocine from sigma1 receptor in guinea pig brain cortex membranes measured after 120 mins by scintillation counting method
# Assay type: cell membranes, Cerebral cortex, Membrane
# Conditions: not given
row,Structure (SMILES),Ki [nM]
1,O[C@H](CN1[C@@H]2CC[C@H]1C[C@H](Cc1ccc(F)cc1)C2)c1ccccc1,2.1
2,O[C@@H](CN1[C@@H]2CC[C@H]1C[C@H](Cc1ccc(F)cc1)C2)c1ccccc1,7
3,O[C@H](CN1[C@@H]2CC[C@H]1C/C(=C\c1ccc(Cl)cc1)C2)c1ccccc1,1.9
4,O[C@@H](CN1[C@@H]2CC[C@H]1C/C(=C\c1ccccc1)C2)c1ccccc1,0.3
5,O[C@H](CN1[C@@H]2CC[C@H]1C/C(=C/c1ccc(Cl)cc1)C2)c1ccccc1,9
6,O[C@H](CN1[C@@H]2CC[C@H]1C/C(=C\c1ccc(F)cc1)C2)c1ccccc1,0.45
7,O[C@H](CN1[C@@H]2CC[C@H]1C/C(=C\c1ccccc1)C2)c1ccccc1,0.8
8,O[C@@H](CN1[C@@H]2CC[C@H]1C/C(=C/c1ccc(F)cc1)C2)c1ccc(F)cc1,28
9,O[C@H](CN1[C@@H]2CC[C@H]1C/C(=C/c1ccccc1)C2)c1ccccc1,11
10,O[C@@H](CN1[C@@H]2CC[C@H]1C/C(=C/c1ccccc1)C2)c1ccccc1,6
11,O[C@H](CN1[C@@H]2CC[C@H]1C[C@@H](Cc1ccc(F)cc1)C2)c1ccccc1,2.6
12,O[C@H](CN1[C@@H]2CC[C@H]1C[C@@H](Cc1ccccc1)C2)c1ccccc1,4.5
13,O[C@@H](CN1[C@@H]2CC[C@H]1C[C@H](Cc1ccccc1)C2)c1ccccc1,7
14,O[C@@H](CN1[C@@H]2CC[C@H]1C[C@H](Cc1ccccc1)C2)c1ccc(F)cc1,6.7
15,O[C@@H](CN1[C@@H]2CC[C@H]1C[C@H](Cc1ccc(F)cc1)C2)c1ccc(F)cc1,25
16,O[C@@H](CN1[C@@H]2CC[C@H]1C[C@@H](Cc1ccccc1)C2)c1ccccc1,1.3
17,O[C@@H](CN1[C@@H]2CC[C@H]1C[C@@H](Cc1ccccc1)C2)c1ccc(F)cc1,0.7
18,O[C@@H](CN1[C@@H]2CC[C@H]1C[C@@H](Cc1ccc(F)cc1)C2)c1ccccc1,0.9
19,O[C@@H](CN1[C@@H]2CC[C@H]1C[C@@H](Cc1ccc(F)cc1)C2)c1ccc(F)cc1,1.2
20,O[C@@H](CN1[C@@H]2CC[C@H]1C/C(=C\c1ccc(F)cc1)C2)c1ccc(F)cc1,0.9
21,O[C@@H](CN1[C@@H]2CC[C@H]1C/C(=C/c1ccc(Cl)cc1)C2)c1ccccc1,18
22,O[C@@H](CN1[C@@H]2CC[C@H]1C/C(=C\c1ccc(Cl)cc1)C2)c1ccccc1,2.7
23,O[C@H](CN1[C@@H]2CC[C@H]1C[C@H](Cc1ccccc1)C2)c1ccccc1 (mixture of isomers),1.9
24,O[C@H](CN1[C@@H]2CC[C@H]1C/C(=C/c1ccc(F)cc1)C2)c1ccccc1,6.6

# Target: T1, Sigma intracellular receptor 2 (Rattus norvegicus, UniProt Q5U3Y7)
# T1 sequence (Q5U3Y7 whole entry): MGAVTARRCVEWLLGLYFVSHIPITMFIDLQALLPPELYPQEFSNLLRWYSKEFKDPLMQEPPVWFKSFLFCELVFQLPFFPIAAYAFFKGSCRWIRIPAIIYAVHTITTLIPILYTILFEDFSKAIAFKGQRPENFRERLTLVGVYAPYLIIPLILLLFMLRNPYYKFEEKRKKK
# Assay: Displacement of [3H]-DTG from sigma 2 receptor in rat liver membrane measured after 120 mins by microbeta counting analysis
# Assay type: cell membranes
# Conditions: not given
row,Structure (SMILES),Ki [nM]
1,O[C@H](CN1[C@@H]2CC[C@H]1C[C@H](Cc1ccc(F)cc1)C2)c1ccccc1,11
2,O[C@@H](CN1[C@@H]2CC[C@H]1C/C(=C/c1ccccc1)C2)c1ccc(F)cc1,47
3,O[C@@H](CN1[C@@H]2CC[C@H]1C[C@H](Cc1ccc(F)cc1)C2)c1ccccc1,23
4,O[C@H](CN1[C@@H]2CC[C@H]1C/C(=C\c1ccc(Cl)cc1)C2)c1ccccc1,30
5,O[C@@H](CN1[C@@H]2CC[C@H]1C/C(=C\c1ccccc1)C2)c1ccccc1,6.6
6,O[C@H](CN1[C@@H]2CC[C@H]1C/C(=C/c1ccc(Cl)cc1)C2)c1ccccc1,47
7,O[C@H](CN1[C@@H]2CC[C@H]1C/C(=C\c1ccc(F)cc1)C2)c1ccccc1,11
8,O[C@H](CN1[C@@H]2CC[C@H]1C/C(=C\c1ccccc1)C2)c1ccccc1,12
9,O[C@@H](CN1[C@@H]2CC[C@H]1C/C(=C/c1ccc(F)cc1)C2)c1ccc(F)cc1,21
10,O[C@H](CN1[C@@H]2CC[C@H]1C/C(=C/c1ccccc1)C2)c1ccccc1,27
11,O[C@@H](CN1[C@@H]2CC[C@H]1C/C(=C/c1ccccc1)C2)c1ccccc1,101
12,O[C@H](CN1[C@@H]2CC[C@H]1C[C@@H](Cc1ccc(F)cc1)C2)c1ccccc1,19
13,O[C@H](CN1[C@@H]2CC[C@H]1C[C@@H](Cc1ccccc1)C2)c1ccccc1,10
14,O[C@@H](CN1[C@@H]2CC[C@H]1C[C@H](Cc1ccccc1)C2)c1ccccc1,14
15,O[C@@H](CN1[C@@H]2CC[C@H]1C[C@H](Cc1ccccc1)C2)c1ccc(F)cc1,10
16,O[C@@H](CN1[C@@H]2CC[C@H]1C[C@H](Cc1ccc(F)cc1)C2)c1ccc(F)cc1,15
17,O[C@@H](CN1[C@@H]2CC[C@H]1C[C@@H](Cc1ccccc1)C2)c1ccccc1,9
18,O[C@@H](CN1[C@@H]2CC[C@H]1C[C@@H](Cc1ccccc1)C2)c1ccc(F)cc1,6
19,O[C@@H](CN1[C@@H]2CC[C@H]1C[C@@H](Cc1ccc(F)cc1)C2)c1ccccc1,22
20,O[C@@H](CN1[C@@H]2CC[C@H]1C[C@@H](Cc1ccc(F)cc1)C2)c1ccc(F)cc1,5.9
21,O[C@@H](CN1[C@@H]2CC[C@H]1C/C(=C\c1ccc(F)cc1)C2)c1ccc(F)cc1,15
22,O[C@@H](CN1[C@@H]2CC[C@H]1C/C(=C\c1ccccc1)C2)c1ccc(F)cc1,11
23,O[C@@H](CN1[C@@H]2CC[C@H]1C/C(=C/c1ccc(Cl)cc1)C2)c1ccccc1,22
24,O[C@@H](CN1[C@@H]2CC[C@H]1C/C(=C\c1ccc(Cl)cc1)C2)c1ccccc1,15
25,O[C@H](CN1[C@@H]2CC[C@H]1C[C@H](Cc1ccccc1)C2)c1ccccc1 (mixture of isomers),11
26,O[C@H](CN1[C@@H]2CC[C@H]1C/C(=C/c1ccc(F)cc1)C2)c1ccccc1,27

# From ChEMBL document CHEMBL5120837, “Synthesis and biological evaluation of conformationally restricted GluN2B ligands derived from eliprodil” (Eur J Med Chem, 2022)
